Results: article PMC6440567 (Clinical and Translational Science, 2018)

What was measured:
[1] = taken to be; ref not given; cited from earlier work
[2] = Final ceftazidime PopPK model; type: in vivo, human
[3] = Individual predicted steady‐state exposures; type: in vivo, human; conditions: for AUC / Cmax: human, plasma

For `CC(C)(O/N=C(\C(=O)N[C@@H]1C(=O)N2C(C(=O)[O-])=C(C[n+]3ccccc3)CS[C@H]12)c1csc(N)n1)C(=O)O` [Ceftazidime, ceftazidime], the “free plasma concentrations as % of total plasma concentrations” value [1] is given as 85%, the “lower V c” value ([2]; Asian compared with non‐Asian patients) is given as 27% and the “lower CL” value ([2]; Chinese patients vs non‐Asians) is given as 9%. The “Slope 1: CrCL < 100 mL/min, slope1*CrCL” value ([2]; CrCL effect on CL) was 0.0103, the “lower V c” value ([2]; body weight at 10th percentile (50 kg) vs median weight (70 kg)) was 24% and the clearance ([2]; human, plasma, intravenous, θ1: CL, typical value) was 116 mL/min. The “θ9: Population effect on V c (cUTI)” value ([2]; in vivo) was 1.03, the “θ10: Population effect on V c (cIAI or NP)” value ([2]; in vivo) was 1.14 and the “θ13: WT effect on V c” value ([2]; in vivo) was 1.01. The “θ14: Population effect on V c (NPv)” value ([2]; in vivo) was 0.297, the “lower CL” value ([2]; non‐Chinese, non‐Japanese Asians vs non‐Asians) was 16% and the “higher V c” value ([2]; patients with NPv vs non‐NPv patients) was 29.7%. For the same compound, the “higher CL” value ([2]; patients with cIAI vs. healthy subjects and patients with cUTI) was 16%, the “θ2: V c” value ([2]; typical value) was 10.5 L and the “θ3: Q” value ([2]; typical value) was 31.5 L/h. The “θ4: V p” value ([2]; typical value) was 7.57 L, the AUC ([3]; AUCss,0–24 geometric mean (CV), Age (years) 18–65) was 800 µg·h/mL and the AUC ([3]; AUCss,0–24 geometric mean (CV), Age (years) > 65–75) was 997 µg·h/mL. The AUC ([3]; AUCss,0–24 geometric mean (CV), Age (years) > 75–89) was 1100 µg·h/mL, the AUC ([3]; AUCss,0–24 geometric mean (CV), Asian population: China (only)) was 892 µg·h/mL and the AUC ([3]; AUCss,0–24 geometric mean (CV), Asian population: Japan) was 1020 µg·h/mL. For the same compound, the AUC ([3]; AUCss,0–24 geometric mean (CV), Baseline WBC count Missing) was 924 µg·h/mL, the AUC ([3]; AUCss,0–24 geometric mean (CV), Concomitant use of OAT1/OAT3 inhibitor(s): No) was 869 µg·h/mL and the AUC ([3]; AUCss,0–24 geometric mean (CV), Concomitant use of OAT1/OAT3 inhibitor(s): Yes) was 934 µg·h/mL. For the same compound, the AUC ([3]; AUCss,0–24 geometric mean (CV), Fever at baseline: Missing) was 929 µg·h/mL, the AUC ([3]; AUCss,0–24 geometric mean (CV), Fever at baseline: No) was 888 µg·h/mL and the AUC ([3]; AUCss,0–24 geometric mean (CV), Fever at baseline: Yes) was 859 µg·h/mL. For the same compound, the AUC ([3]; AUCss,0–24 geometric mean (CV), Obesity I (29.9 ≤ BMI < 34.9 kg/m^2)) was 841 µg·h/mL, the AUC ([3]; AUCss,0–24 geometric mean (CV), Obesity II (34.9 ≤ BMI < 39.9 kg/m^2)) was 894 µg·h/mL and the AUC ([3]; AUCss,0–24 geometric mean (CV), Obesity III (BMI ≥ 39.9 kg/m^2)) was 806 µg·h/mL. It also gave an AUC ([3]; AUCss,0–24 geometric mean (CV), Obesity: Missing) of 959 µg·h/mL, an AUC ([3]; AUCss,0–24 geometric mean (CV), Obesity: Normal) of 878 µg·h/mL and an AUC ([3]; AUCss,0–24 geometric mean (CV), Race: Asian (non‐Chinese; non‐Japanese)) of 968 µg·h/mL. For the same compound, the AUC ([3]; AUCss,0–24 geometric mean (CV), Race: Chinese and Taiwanese) was 884 µg·h/mL, the AUC ([3]; AUCss,0–24 geometric mean (CV), Race: Japanese) was 1020 µg·h/mL and the AUC ([3]; AUCss,0–24 geometric mean (CV), Race: White/other) was 848 µg·h/mL. It also gave a Cmax ([3]; C max,ss geometric mean (CV), Age (years) 18–65) of 70 µg/mL, a Cmax ([3]; C max,ss geometric mean (CV), Age (years) > 65–75) of 77.1 µg/mL and a Cmax ([3]; C max,ss geometric mean (CV), Age (years) > 75–89) of 76.8 µg/mL. The Cmax ([3]; C max,ss geometric mean (CV), Asian population: China (only)) was 78.4 µg/mL, the Cmax ([3]; C max,ss geometric mean (CV), Asian population: Japan) was 90.4 µg/mL and the Cmax ([3]; C max,ss geometric mean (CV), Asian population: Korea) was 79.9 µg/mL. The Cmax ([3]; C max,ss geometric mean (CV), Concomitant use of OAT1/OAT3 inhibitor(s): No) was 71.7 µg/mL, the Cmax ([3]; C max,ss geometric mean (CV), Concomitant use of OAT1/OAT3 inhibitor(s): Yes) was 78.5 µg/mL and the Cmax ([3]; C max,ss geometric mean (CV), Fever at baseline: Missing) was 75.1 µg/mL. The Cmax ([3]; C max,ss geometric mean (CV), Fever at baseline: No) was 71.9 µg/mL, the Cmax ([3]; C max,ss geometric mean (CV), Fever at baseline: Yes) was 72.1 µg/mL and the Cmax ([3]; C max,ss geometric mean (CV), Obesity I (29.9 ≤ BMI < 34.9 kg/m^2)) was 67.9 µg/mL. The Cmax ([3]; C max,ss geometric mean (CV), Obesity II (34.9 ≤ BMI < 39.9 kg/m^2)) was 73.7 µg/mL, the Cmax ([3]; C max,ss geometric mean (CV), Obesity III (BMI ≥ 39.9 kg/m^2)) was 64.2 µg/mL and the Cmax ([3]; C max,ss geometric mean (CV), Obesity: Missing) was 70.9 µg/mL. It also gave a Cmax ([3]; C max,ss geometric mean (CV), Obesity: Normal) of 73 µg/mL, a Cmax ([3]; C max,ss geometric mean (CV), Race: Asian (non‐Chinese; non‐Japanese)) of 82.2 µg/mL and a Cmax ([3]; C max,ss geometric mean (CV), Race: Chinese and Taiwanese) of 77.6 µg/mL. For the same compound, the Cmax ([3]; C max,ss geometric mean (CV), Race: Japanese) was 90.4 µg/mL, the Cmax ([3]; C max,ss geometric mean (CV), Race: White/other) was 68.6 µg/mL and the AUC ([3]; intravenous) was 748 µg·h/mL. For the same compound, the Cmax ([3]; intravenous) was 67 µg/mL, the AUC ([3]; intravenous, 187.5 mg, AUCss,0–24 geometric mean (CV), Day 3 CrCL 8–15 mL/min (750‐187.5 mg q24 h)) was 551 µg·h/mL and the Cmax ([3]; intravenous, 187.5 mg, C max,ss geometric mean (CV), Day 3 CrCL 8–15 mL/min (750‐187.5 mg q24 h)) was 34.3 µg/mL. The AUC ([3]; intravenous, 500 mg, AUCss,0–24 geometric mean (CV), Day 3 CrCL > 150–180 mL/min (2000‐500 mg q8 h)) was 652 µg·h/mL, the Cmax ([3]; intravenous, 500 mg, C max,ss geometric mean (CV), Day 3 CrCL > 150–180 mL/min (2000‐500 mg q8 h)) was 58.5 µg/mL and the AUC ([3]; intravenous, AUCss,0–24 geometric mean (CV), Asian population: Korea) was 952 µg·h/mL. It also gave an AUC ([3]; intravenous, AUCss,0–24 geometric mean (CV), Asian population: Taiwan) of 728 µg·h/mL, an AUC ([3]; intravenous, AUCss,0–24 geometric mean (CV), Asian population: Vietnam) of 852 µg·h/mL and an AUC ([3]; intravenous, AUCss,0–24 geometric mean (CV), Bacteremia at baseline: No) of 881 µg·h/mL. The AUC ([3]; intravenous, AUCss,0–24 geometric mean (CV), Bacteremia at baseline: Yes) was 919 µg·h/mL, the AUC ([3]; intravenous, AUCss,0–24 geometric mean (CV), Baseline APACHE II score > 10) was 938 µg·h/mL and the AUC ([3]; intravenous, AUCss,0–24 geometric mean (CV), Baseline APACHE II score Missing) was 979 µg·h/mL. The AUC ([3]; intravenous, AUCss,0–24 geometric mean (CV), Baseline WBC count (cells/μL) > 12,000) was 801 µg·h/mL, the AUC ([3]; intravenous, AUCss,0–24 geometric mean (CV), Baseline WBC count (cells/μL) ≤ 12,000) was 923 µg·h/mL and the AUC ([3]; intravenous, AUCss,0–24 geometric mean (CV), Patient population: NP) was 950 µg·h/mL. It also gave an AUC ([3]; intravenous, AUCss,0–24 geometric mean (CV), Patient population: Non‐VAP) of 1020 µg·h/mL, an AUC ([3]; intravenous, AUCss,0–24 geometric mean (CV), Patient population: VAP) of 830 µg·h/mL and an AUC ([3]; intravenous, AUCss,0–24 geometric mean (CV), Patient population: cIAI) of 749 µg·h/mL. It also gave an AUC ([3]; intravenous, AUCss,0–24 geometric mean (CV), Patient population: cUTI) of 979 µg·h/mL, an AUC ([3]; intravenous, AUCss,0–24 geometric mean (CV), SIRS at baseline: Missing) of 977 µg·h/mL and an AUC ([3]; intravenous, AUCss,0–24 geometric mean (CV), SIRS at baseline: No) of 895 µg·h/mL. It also gave an AUC ([3]; intravenous, AUCss,0–24 geometric mean (CV), SIRS at baseline: Yes) of 869 µg·h/mL, a Cmax ([3]; intravenous, C max,ss geometric mean (CV), Asian population: Taiwan) of 59.4 µg/mL and a Cmax ([3]; intravenous, C max,ss geometric mean (CV), Asian population: Vietnam) of 78.6 µg/mL. For the same compound, the Cmax ([3]; intravenous, C max,ss geometric mean (CV), Bacteremia at baseline: No) was 71.9 µg/mL, the Cmax ([3]; intravenous, C max,ss geometric mean (CV), Bacteremia at baseline: Yes) was 73.6 µg/mL and the Cmax ([3]; intravenous, C max,ss geometric mean (CV), Baseline APACHE II score > 10) was 72.3 µg/mL. The Cmax ([3]; intravenous, C max,ss geometric mean (CV), Baseline APACHE II score Missing) was 77.9 µg/mL, the Cmax ([3]; intravenous, C max,ss geometric mean (CV), Baseline WBC count (cells/μL) > 12,000) was 67.6 µg/mL and the Cmax ([3]; intravenous, C max,ss geometric mean (CV), Baseline WBC count (cells/μL) ≤ 12,000) was 74.6 µg/mL. The Cmax ([3]; intravenous, C max,ss geometric mean (CV), Patient population: NP) was 72.9 µg/mL, the Cmax ([3]; intravenous, C max,ss geometric mean (CV), Patient population: Non‐VAP) was 79 µg/mL and the Cmax ([3]; intravenous, C max,ss geometric mean (CV), Patient population: VAP) was 61.9 µg/mL. The Cmax ([3]; intravenous, C max,ss geometric mean (CV), Patient population: cIAI) was 66.9 µg/mL, the Cmax ([3]; intravenous, C max,ss geometric mean (CV), Patient population: cUTI) was 77.9 µg/mL and the Cmax ([3]; intravenous, C max,ss geometric mean (CV), SIRS at baseline: Missing) was 83.5 µg/mL. For the same compound, the Cmax ([3]; intravenous, C max,ss geometric mean (CV), SIRS at baseline: No) was 72.3 µg/mL, the Cmax ([3]; intravenous, C max,ss geometric mean (CV), SIRS at baseline: Yes) was 71.5 µg/mL and the “difference in steady‐state exposure vs. healthy volunteers” value ([3]; most patient subgroups) was ≤ 20%. For the same compound, the “lower C max,ss” value ([3]; patients with VAP vs non‐VAP patients) was ~ 20%.
